# Data taken from patent US20250098679A1, “HERBICIDAL PYRIDONE DERIVATIVES” (SYNGENTA CROP PROTECTION AG, priority 2021, published 2025).
# Experiments:
# Assay type in all cases: in vivo
# [1] = test system: Echinochloa crus-galli (ECHCG); assay: Post-emergence Test, Echinochloa crus-galli (ECHCG); design: key to percentage damage caused to the plant, ECHCG (five-point scale): 5=81-100%, 4=61-80%, 3=41-60%, 2=21-40%, 1=0-20% damage; details: evaluated after 13 days; for Post-emergence Test ECHCG, percentage damage caused to the plant (five-point scale): 250 g/Ha (*); for percentage damage caused to the plant, ECHCG (five-point scale): 250 g/Ha
# Method in brief: (§1)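 Spray application at 1000 g/ha unless otherwise stated. Damage was scored 13 days later as 1 (0-20%) to 5 (81-100%).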
# [2] = test system: Ipomoea hederacea (IPOHE); assay: Post-emergence Test, Ipomoea hederacea (IPOHE); design: key to percentage damage caused to the plant, IPOHE (five-point scale): 5=81-100%, 4=61-80%, 3=41-60%, 2=21-40%, 1=0-20% damage; details: evaluated after 13 days
# Method in brief: as §1
# [3] = test system: Amaranthus retoflexus (AMARE); assay: Post-emergence Test, Amaranthus retoflexus (AMARE); design: key to percentage damage caused to the plant, AMARE (five-point scale): 5=81-100%, 4=61-80%, 3=41-60%, 2=21-40%, 1=0-20% damage; details: evaluated after 13 days
# Method in brief: as §1
# [4] = test system: Amaranthus retoflexus (AMARE); assay: Pre-emergence Test, Amaranthus retoflexus (AMARE); details: evaluated after 13 days
# Zea mays (ZEAMX) [5] = assay: Pre-emergence Test, Zea mays (ZEAMX); details: evaluated after 13 days
# [6] = test system: Ipomoea hederacea (IPOHE); assay: Pre-emergence Test, Ipomoea hederacea (IPOHE); details: evaluated after 13 days
# [7] = test system: Echinochloa crus-galli (ECHCG); assay: Pre-emergence Test, Echinochloa crus-galli (ECHCG); details: evaluated after 13 days
# [8] = test system: Amaranthus palmeri (AMAPA); assay: Pre-emergence Test, Amaranthus palmeri (AMAPA); details: evaluated after 13 days
# [9] = test system: Amaranthus palmeri (AMAPA); assay: Post-emergence Test, Amaranthus palmeri (AMAPA); design: key: 5=81-100%, 4=61-80%, 3=41-60%, 2=21-40%, 1=0-20% damage; details: evaluated after 13 days
# Method in brief: as §1
# Setaria faberi (SETFA) = assay: Post-emergence Test, Setaria faberi (SETFA); design: key to percentage damage caused to the plant, SETFA (five-point scale): 5=81-100%, 4=61-80%, 3=41-60%, 2=21-40%, 1=0-20% damage; details: 1000 g/ha, evaluated after 13 days
# Method in brief: as §1
# Zea mays (ZEAMX) [10] = assay: Post-emergence Test, Zea mays (ZEAMX); design: key to percentage damage caused to the plant, ZEAMX (five-point scale): 5=81-100%, 4=61-80%, 3=41-60%, 2=21-40%, 1=0-20% damage; details: evaluated after 13 days
# Method in brief: as §1
Structure (SMILES),"Post-emergence Test ECHCG, percentage damage caused to the plant (five-point scale) [1]","Post-emergence Test IPOHE, percentage damage caused to the plant (five-point scale) ([2]; 250 g/Ha (*))","Post-emergence Test IPOHE, percentage damage caused to the plant (five-point scale) ([2]; 1000 g/ha)","Post-emergence Test AMARE, percentage damage caused to the plant (five-point scale) ([3]; 250 g/Ha (*))","Post-emergence Test AMARE, percentage damage caused to the plant (five-point scale) ([3]; 1000 g/ha)","Pre-emergence Test AMARE, percentage damage caused to the plant (five-point scale) ([4]; 1000 g/ha)","Pre-emergence Test ZEAMX, percentage damage caused to the plant (five-point scale) (Zea mays (ZEAMX) [5]; 1000 g/ha)","Pre-emergence Test IPOHE, percentage damage caused to the plant (five-point scale) ([6]; 1000 g/ha)","Pre-emergence Test ECHCG, percentage damage caused to the plant (five-point scale) ([7]; 1000 g/ha)","Pre-emergence Test AMAPA, percentage damage caused to the plant (five-point scale) ([8]; 1000 g/ha)","Post-emergence Test AMAPA, percentage damage caused to the plant (five-point scale) ([9]; 250 g/Ha (*))","Post-emergence Test AMAPA, percentage damage caused to the plant (five-point scale) ([9]; 1000 g/ha)","Post-emergence Test SETFA, percentage damage caused to the plant (five-point scale) (Setaria faberi (SETFA))","Post-emergence Test ZEAMX, percentage damage caused to the plant (five-point scale) (Zea mays (ZEAMX) [10]; 250 g/Ha (*))","Post-emergence Test ZEAMX, percentage damage caused to the plant (five-point scale) (Zea mays (ZEAMX) [10]; 1000 g/ha)","percentage damage caused to the plant, ECHCG (five-point scale) [1]","percentage damage caused to the plant, IPOHE (five-point scale) ([2]; 250 g/Ha)","percentage damage caused to the plant, IPOHE (five-point scale) ([2]; 1000 g/ha)","percentage damage caused to the plant, AMARE (five-point scale) ([3]; 250 g/Ha)","percentage damage caused to the plant, AMARE (five-point scale) ([3]; 1000 g/ha)",other results
"CCn1c(Cn2ccc(-c3nccs3)n2)cc(=O)c(C(=O)O)c1-c1ccc(Cl)c(Cl)c1 [Compound 201, 2-(3,4-dichlorophenyl)-1-ethyl-4-oxo-6-[(3-thiazol-2-ylpyrazol-1-yl)methyl]pyridine-3-carboxylic acid]",1 (1=0-20%),0,2 (2=21-40%),0,2 (2=21-40%),0,0,1 (1=0-20%),0,0,0,1 (1=0-20%),2 (2=21-40%),0,1 (1=0-20%),–,–,–,–,–,–
"CCn1c(Cn2nccc2COC)cc(=O)c(C(=O)O)c1-c1ccc(Cl)c(Cl)c1 [Compound 190, 2-(3,4-dichlorophenyl)-1-ethyl-6-[[5-(methoxymethyl)pyrazol-1-yl]methyl]-4-oxo-pyridine-3-carboxylic acid]",–,–,–,–,–,1 (1=0-20%),2 (2=21-40%),3 (3=41-60%),4 (4=61-80%),1 (1=0-20%),–,–,–,–,–,3 (3=41-60%),1 (1=0-20%),3 (3=41-60%),1 (1=0-20%),2 (2=21-40%),"Pre-emergence Test AMARE, percentage damage caused to the plant (five-point scale) ([4]; 250 g/Ha (*)): 0; Pre-emergence Test ZEAMX, percentage damage caused to the plant (five-point scale) (Zea mays (ZEAMX) [5]; 250 g/Ha (*)): 1 (1=0-20%); Pre-emergence Test IPOHE, percentage damage caused to the plant (five-point scale) ([6]; 250 g/Ha (*)): 1 (1=0-20%); Pre-emergence Test ECHCG, percentage damage caused to the plant (five-point scale) ([7]; 250 g/Ha (*)): 1 (1=0-20%); Pre-emergence Test AMAPA, percentage damage caused to the plant (five-point scale) ([8]; 250 g/Ha (*)): 0; percentage damage caused to the plant, AMAPA (five-point scale) ([9]; 250 g/Ha): 1 (1=0-20%); percentage damage caused to the plant, AMAPA (five-point scale) ([9]; 1000 g/ha): 1 (1=0-20%); percentage damage caused to the plant, SETFA (five-point scale) (Setaria faberi (SETFA)): 4 (4=61-80%); percentage damage caused to the plant, ZEAMX (five-point scale) (Zea mays (ZEAMX) [10]; 250 g/Ha): 0; percentage damage caused to the plant, ZEAMX (five-point scale) (Zea mays (ZEAMX) [10]; 1000 g/ha): 3 (3=41-60%)"
"CCn1c(Cn2ccc(-c3cnccn3)n2)cc(=O)c(C(=O)O)c1-c1ccc(Cl)c(Cl)c1 [Compound 203, 2-(3,4-dichlorophenyl)-1-ethyl-4-oxo-6-[(3-pyrazin-2-ylpyrazol-1-yl)methyl]pyridine-3-carboxylic acid]",1 (1=0-20%),2 (2=21-40%),1 (1=0-20%),1 (1=0-20%),0,1 (1=0-20%),1 (1=0-20%),0,2 (2=21-40%),1 (1=0-20%),1 (1=0-20%),0,1 (1=0-20%),1 (1=0-20%),1 (1=0-20%),–,–,–,–,–,–
"CCn1c(Cn2ccc(-c3cccs3)n2)cc(=O)c(C(=O)O)c1-c1ccc(Cl)c(Cl)c1 [Compound 194, 2-(3,4-dichlorophenyl)-1-ethyl-4-oxo-6-[[3-(2-thienyl)pyrazol-1-yl]methyl]pyridine-3-carboxylic acid]",2 (2=21-40%),1 (1=0-20%),2 (2=21-40%),0,2 (2=21-40%),0,1 (1=0-20%),2 (2=21-40%),2 (2=21-40%),0,0,1 (1=0-20%),3 (3=41-60%),1 (1=0-20%),1 (1=0-20%),–,–,–,–,–,"Pre-emergence Test AMARE, percentage damage caused to the plant (five-point scale) ([4]; 250 g/Ha (*)): 0; Pre-emergence Test ZEAMX, percentage damage caused to the plant (five-point scale) (Zea mays (ZEAMX) [5]; 250 g/Ha (*)): 0; Pre-emergence Test IPOHE, percentage damage caused to the plant (five-point scale) ([6]; 250 g/Ha (*)): 1 (1=0-20%); Pre-emergence Test ECHCG, percentage damage caused to the plant (five-point scale) ([7]; 250 g/Ha (*)): 1 (1=0-20%); Pre-emergence Test AMAPA, percentage damage caused to the plant (five-point scale) ([8]; 250 g/Ha (*)): 0"
"CCn1c(Cn2ccc(C(C)=O)n2)cc(=O)c(C(=O)O)c1-c1ccc(Cl)c(Cl)c1 [Compound 180, 6-[(3-acetylpyrazol-1-yl)methyl]-2-(3,4-dichlorophenyl)-1-ethyl-4-oxo-pyridine-3-carboxylic acid]",–,–,–,–,–,2 (2=21-40%),0,0,1 (1=0-20%),1 (1=0-20%),–,–,–,–,–,1 (1=0-20%),0,1 (1=0-20%),0,1 (1=0-20%),"percentage damage caused to the plant, AMAPA (five-point scale) ([9]; 250 g/Ha): 0; percentage damage caused to the plant, AMAPA (five-point scale) ([9]; 1000 g/ha): 0; percentage damage caused to the plant, SETFA (five-point scale) (Setaria faberi (SETFA)): 1 (1=0-20%); percentage damage caused to the plant, ZEAMX (five-point scale) (Zea mays (ZEAMX) [10]; 250 g/Ha): 0; percentage damage caused to the plant, ZEAMX (five-point scale) (Zea mays (ZEAMX) [10]; 1000 g/ha): 1 (1=0-20%)"
